Laboratory results published in PMC7782793, “Hydroxamic acid-modified peptide microarrays for profiling isozyme-selective interactions and inhibition of histone deacetylases” (Nature Communications, 2021).
“And” between values parts separate entries of the source, which are not always exact repeats. Equal entries are not always repeated. Marks after values point to notes of the source that are not given here. Non-standard residues stand in square brackets, D forms with d. Residues, ends and D or L forms follow the SMILES beside them. *: point of attachment. Asu = N[C@@H](CCCCCC(=O)O)C(=O)O; NHOH = ON*

Assays:
HDACs 1‒3 and 8 = test: HDAC inhibition assays, statements across several class I isozymes; format: biochemical, human; conditions: resynthesized peptides, from Ki
HDAC6 = biological target: T1, HDAC6 (Homo sapiens, UniProt Q9UBN7); test: HDAC inhibition assay (fluorogenic, Ac-Leu-Gly-Lys(Ac)-AMC); format: biochemical; conditions: HDAC6, replicates
T1 construct: HDAC6 (full length, BPS Bioscience, cat. #: 50056); purchased BPS Bioscience 50056
T1 sequence (Q9UBN7 1-1215): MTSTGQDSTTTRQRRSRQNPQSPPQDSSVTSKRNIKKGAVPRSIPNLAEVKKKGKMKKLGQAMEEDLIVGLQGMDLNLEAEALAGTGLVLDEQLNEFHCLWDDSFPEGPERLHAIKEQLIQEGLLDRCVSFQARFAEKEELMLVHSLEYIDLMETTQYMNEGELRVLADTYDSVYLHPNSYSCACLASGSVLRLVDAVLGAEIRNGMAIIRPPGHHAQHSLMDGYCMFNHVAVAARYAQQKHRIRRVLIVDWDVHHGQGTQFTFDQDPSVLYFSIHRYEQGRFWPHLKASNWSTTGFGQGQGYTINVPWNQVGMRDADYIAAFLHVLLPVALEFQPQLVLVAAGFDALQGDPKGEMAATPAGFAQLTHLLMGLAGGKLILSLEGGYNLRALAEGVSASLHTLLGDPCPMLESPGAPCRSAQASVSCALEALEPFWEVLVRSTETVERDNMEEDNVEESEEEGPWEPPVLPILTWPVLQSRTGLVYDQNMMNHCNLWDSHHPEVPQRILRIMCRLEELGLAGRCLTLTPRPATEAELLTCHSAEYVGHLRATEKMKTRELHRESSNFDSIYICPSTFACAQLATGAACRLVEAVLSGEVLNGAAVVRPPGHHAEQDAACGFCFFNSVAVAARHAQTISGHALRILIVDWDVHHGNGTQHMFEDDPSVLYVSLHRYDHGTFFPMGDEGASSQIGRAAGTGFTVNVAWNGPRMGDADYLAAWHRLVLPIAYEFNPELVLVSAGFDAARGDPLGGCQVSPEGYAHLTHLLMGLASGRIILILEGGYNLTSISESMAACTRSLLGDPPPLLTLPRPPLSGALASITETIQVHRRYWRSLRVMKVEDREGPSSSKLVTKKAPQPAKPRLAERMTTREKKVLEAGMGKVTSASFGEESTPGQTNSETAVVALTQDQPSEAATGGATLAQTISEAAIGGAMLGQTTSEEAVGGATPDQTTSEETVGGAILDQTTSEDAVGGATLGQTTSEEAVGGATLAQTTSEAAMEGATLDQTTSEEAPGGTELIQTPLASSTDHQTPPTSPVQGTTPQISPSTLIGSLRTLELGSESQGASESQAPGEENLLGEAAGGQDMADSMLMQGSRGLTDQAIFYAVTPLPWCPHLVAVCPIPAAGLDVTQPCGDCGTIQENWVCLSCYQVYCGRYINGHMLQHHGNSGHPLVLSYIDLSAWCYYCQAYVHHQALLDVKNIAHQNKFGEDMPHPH

HDAC1 [1] = biological target: T2, HDAC1 (Homo sapiens, UniProt Q13547); test: as above; format: biochemical; conditions: for HDAC1 dose-response data (relative enzyme activity), Fig. 6 + S. Fig. 10: duplicate columns
T2 construct: HDAC1 (full length, C-terminal His tag, C-terminal FLAG tag, BPS Bioscience, cat. #: 50051); FLAG (C); purchased BPS Bioscience 50051

HDAC2 = biological target: T3, HDAC2 (Homo sapiens, UniProt Q92769); test: as above; format: biochemical; conditions: for HDAC2 dose-response data (relative enzyme activity), Fig. 6 + S. Fig. 10: duplicate columns
T3 construct: HDAC2 (full length, C-terminal His tag, BPS Bioscience, cat. #: 50002); purchased BPS Bioscience 50002

HDAC8 = biological target: T4, HDAC8 (Homo sapiens, UniProt Q9BY41); test: HDAC inhibition assay (fluorogenic, Ac-Leu-Gly-Lys(Tfa)-AMC); format: biochemical; conditions: for HDAC8 dose-response data (relative enzyme activity, replicate values), Fig. 6 + S. Fig. 10: two replicate columns per inhibitor; for HDAC8 dose-response data (relative enzyme activity), Fig. 6 + S. Fig. 10: duplicate columns
T4 construct: HDAC8 (full length, C-terminal His tag, BPS Bioscience, cat. #: 50008); purchased BPS Bioscience 50008
T4 sequence (Q9BY41 1-377): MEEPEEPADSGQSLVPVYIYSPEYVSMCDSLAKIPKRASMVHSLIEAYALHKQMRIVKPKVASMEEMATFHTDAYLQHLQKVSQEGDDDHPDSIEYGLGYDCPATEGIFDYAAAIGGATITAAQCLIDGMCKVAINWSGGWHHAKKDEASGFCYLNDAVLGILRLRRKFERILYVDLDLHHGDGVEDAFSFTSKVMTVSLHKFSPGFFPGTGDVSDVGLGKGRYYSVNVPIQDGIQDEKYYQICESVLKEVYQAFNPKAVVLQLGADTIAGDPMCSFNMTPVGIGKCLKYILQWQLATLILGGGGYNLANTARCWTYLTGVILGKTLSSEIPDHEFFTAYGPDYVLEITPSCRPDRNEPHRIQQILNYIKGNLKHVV

HDAC3/NCoR2 [2] = biological target: T5, HDAC3/NCoR2 (Homo sapiens, UniProt O15379); test: Recombinant HDAC µSPOT microarray binding assay;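 further: peptide spots on cellulose slides incubated with rising HDAC enzyme concentrations, imaged together, four-parameter logistic fit, EC50 is enzyme concentration giving half-maximal binding signal, two experiments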
T5 construct: HDAC3/NCoR2 (full length, C-terminal His tag, NCoR2 N-terminal GST tag); purchased BPS Bioscience 50003
Method: (§1) Experiments were performed twice, data were obtained with Array Analyze software (Active Motif), and data analysis and representation were performed with the GraphPad Prism 7 software. Outliers were curated manually and data were fitted to nonlinear regression [log(agonist) vs. response—variable slope (four parameters)]. […] Non-sigmoidal curves were denoted as not determined (N.D.) The pEC50 values were determined as the concentration of HDAC enzyme required for half-maximal binding signal.

HDAC1 [3] = biological target: T2, HDAC1; test: Recombinant HDAC µSPOT microarray binding assay;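 further: slides with spotted peptides incubated with six HDAC concentrations in HEPES buffer pH 7.4, spot intensities fitted by four-parameter logistic, EC50 as enzyme concentration giving half-maximal binding signal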
Method: as §1

HDAC3/NCoR2 [4] = biological target: T5, HDAC3/NCoR2; test: HDAC inhibition assay (fluorogenic, Ac-Leu-Gly-Lys(Ac)-AMC); format: biochemical; conditions: for HDAC3 dose-response data (relative enzyme activity), Fig. 6 + S. Fig. 10: duplicate columns
[5] = log[inhibitor(M)] -10,5850266520292*, whole line marked with asterisks

T3 sequence (Q92769 whole entry): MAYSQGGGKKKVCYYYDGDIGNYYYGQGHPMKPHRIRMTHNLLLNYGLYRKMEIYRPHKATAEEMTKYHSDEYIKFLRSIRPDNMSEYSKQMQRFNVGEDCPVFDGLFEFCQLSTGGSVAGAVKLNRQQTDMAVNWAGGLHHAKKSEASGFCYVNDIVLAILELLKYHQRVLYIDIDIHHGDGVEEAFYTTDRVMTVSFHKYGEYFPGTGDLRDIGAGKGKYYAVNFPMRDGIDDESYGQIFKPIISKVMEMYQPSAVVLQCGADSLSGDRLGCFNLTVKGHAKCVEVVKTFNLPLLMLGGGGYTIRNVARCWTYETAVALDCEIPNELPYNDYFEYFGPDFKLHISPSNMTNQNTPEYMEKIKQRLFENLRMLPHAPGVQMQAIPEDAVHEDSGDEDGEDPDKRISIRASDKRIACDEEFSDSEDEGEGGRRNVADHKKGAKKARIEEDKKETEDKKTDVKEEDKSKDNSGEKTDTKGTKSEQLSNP
T5 sequence (O15379 whole entry): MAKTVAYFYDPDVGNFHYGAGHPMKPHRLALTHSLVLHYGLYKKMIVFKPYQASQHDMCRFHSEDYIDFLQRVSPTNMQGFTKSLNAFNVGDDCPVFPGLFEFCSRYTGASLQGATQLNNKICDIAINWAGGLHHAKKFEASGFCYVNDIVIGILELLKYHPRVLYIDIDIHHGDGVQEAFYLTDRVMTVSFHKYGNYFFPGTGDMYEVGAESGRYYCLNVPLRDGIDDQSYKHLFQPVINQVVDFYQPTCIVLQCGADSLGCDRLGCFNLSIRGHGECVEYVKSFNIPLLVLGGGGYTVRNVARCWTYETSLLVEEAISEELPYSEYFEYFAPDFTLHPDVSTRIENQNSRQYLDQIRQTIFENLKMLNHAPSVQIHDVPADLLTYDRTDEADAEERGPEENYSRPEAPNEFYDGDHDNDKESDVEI
T5 sequence (Q9Y618 389-480 partner limits assumed): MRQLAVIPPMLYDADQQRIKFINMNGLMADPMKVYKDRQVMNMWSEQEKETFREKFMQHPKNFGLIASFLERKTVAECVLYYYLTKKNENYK
T2 sequence (Q13547 whole entry): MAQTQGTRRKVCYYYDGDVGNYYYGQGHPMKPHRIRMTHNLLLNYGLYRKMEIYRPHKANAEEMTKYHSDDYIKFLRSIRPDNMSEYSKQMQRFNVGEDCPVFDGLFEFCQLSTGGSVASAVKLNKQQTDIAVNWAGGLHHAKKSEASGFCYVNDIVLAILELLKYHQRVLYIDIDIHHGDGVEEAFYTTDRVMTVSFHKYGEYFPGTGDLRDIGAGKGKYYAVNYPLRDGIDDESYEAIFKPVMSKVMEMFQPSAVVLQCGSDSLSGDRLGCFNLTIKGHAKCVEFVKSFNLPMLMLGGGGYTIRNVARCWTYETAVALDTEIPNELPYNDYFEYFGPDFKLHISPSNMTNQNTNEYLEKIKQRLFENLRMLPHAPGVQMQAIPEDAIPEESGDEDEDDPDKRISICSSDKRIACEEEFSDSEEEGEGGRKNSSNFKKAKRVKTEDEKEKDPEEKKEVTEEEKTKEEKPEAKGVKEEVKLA

CC(=O)N[C@@H](CC(C)C)C(=O)NCC(=O)N[C@@H](CCCCN)C(=O)NCC(=O)NCC(=O)N[C@@H](C)C(=O)N[C@@H](CCCCCC(=O)NO)C(=O)N[C@@H](CCCNC(=N)N)C(=O)N[C@@H](Cc1c[nH]cn1)C(=O)N[C@@H](CCCNC(=N)N)C(=O)N[C@@H](CCCCN)C(=O)N[C@H](C(=O)N[C@@H](CC(C)C)C(=O)N[C@@H](CCCNC(=N)N)C(=O)N[C@@H](CC(=O)O)C(=O)N[C@@H](CC(N)=O)C(=O)N[C@@H](Cc1c[nH]c2ccccc12)C(N)=O)C(C)C [16a] (Ac-LGKGGA[Asu](NHOH)RHRKVLRDNW-NH2)
selectivity against HDACs 1‒3 versus HDAC8 (HDACs 1‒3 and 8): over 100 fold
residual enzymatic activity relative to control wells (HDAC6; log[inhibitor(M)] -4.30103): 4.09 and 0.65
residual enzymatic activity relative to control wells (HDAC6; log[inhibitor(M)] -5): 6.22 and 1.17
residual enzymatic activity relative to control wells (HDAC6; log[inhibitor(M)] -5.69897): 11.26 and 3.12
residual enzymatic activity relative to control wells (HDAC6; log[inhibitor(M)] -6.39794): 21.64 and 10.97
residual enzymatic activity relative to control wells (HDAC6; log[inhibitor(M)] -7.09691): 46.18 and 32.55
residual enzymatic activity relative to control wells (HDAC6; log[inhibitor(M)] -7.79588): 74.92 and 62.21
residual enzymatic activity relative to control wells (HDAC6; log[inhibitor(M)] -8.49485): 91.41 and 82.42
residual enzymatic activity relative to control wells (HDAC6; log[inhibitor(M)] -9.19382): 100.82 and 93.56
residual enzymatic activity relative to control wells (HDAC6; log[inhibitor(M)] -9.89279): 98.48 and 94.75
residual enzymatic activity relative to control wells (HDAC6; log[inhibitor(M)] -10.585): 101,7* and 98,09*
Ki (HDAC1 [1]): 0.0157 ± 0.0002 µM
HDAC1 dose-response data (relative enzyme activity), Fig. 6 + S. Fig. 10 (HDAC1 [1]; log[inhibitor(M)] -6.39794): 20.1917 and 18.7736
HDAC1 dose-response data (relative enzyme activity), Fig. 6 + S. Fig. 10 (HDAC1 [1]; log[inhibitor(M)] -7.09691): 58.4856 and 48.5202
HDAC1 dose-response data (relative enzyme activity), Fig. 6 + S. Fig. 10 (HDAC1 [1]; log[inhibitor(M)] -7.79588): 83.6845 and 79.5184
HDAC1 dose-response data (relative enzyme activity), Fig. 6 + S. Fig. 10 (HDAC1 [1]; log[inhibitor(M)] -8.49485): 104.354 and 102.416
HDAC1 dose-response data (relative enzyme activity), Fig. 6 + S. Fig. 10 (HDAC1 [1]; log[inhibitor(M)] -9.19382): 117.259 and 104.242
HDAC1 dose-response data (relative enzyme activity), Fig. 6 + S. Fig. 10 (HDAC1 [1]; log[inhibitor(M)] -9.89279): 112.284 and 97.8893
HDAC1 dose-response data (relative enzyme activity), Fig. 6 + S. Fig. 10 (HDAC1 [1]; [5]): 104,006* and 95,9789*
HDAC2 dose-response data (relative enzyme activity), Fig. 6 + S. Fig. 10 (HDAC2; log[inhibitor(M)] -7.79588): 97.4067 and 92.3774
HDAC2 dose-response data (relative enzyme activity), Fig. 6 + S. Fig. 10 (HDAC2; [5]): 106,147* and 102,092*
Ki (HDAC2; resynthesized peptide in solution, Cheng-Prusoff, n = 2): 0.0183 ± 0.0003 µM
Ki (HDAC8): 3.96 ± 0.03 µM
HDAC8 dose-response data (relative enzyme activity, replicate values), Fig. 6 + S. Fig. 10 (HDAC8; Inhibitor conc [M] -8.49485 (log)): 105.989 and 103.599
HDAC8 dose-response data (relative enzyme activity, replicate values), Fig. 6 + S. Fig. 10 (HDAC8; Inhibitor conc [M] -9.19382 (log)): 103.027 and 101.95
HDAC8 dose-response data (relative enzyme activity, replicate values), Fig. 6 + S. Fig. 10 (HDAC8; Inhibitor conc [M] given as -7.09691 (log)): 102.108 and 99.2954
HDAC8 dose-response data (relative enzyme activity, replicate values), Fig. 6 + S. Fig. 10 (HDAC8; Inhibitor conc [M] given as -7.79588 (log)): 104.22 and 100.942
HDAC8 dose-response data (relative enzyme activity, replicate values), Fig. 6 + S. Fig. 10 (HDAC8; Inhibitor conc [M] given as -9.89279 (log)): 101.805 and 102.182
HDAC8 dose-response data (relative enzyme activity, replicate values), Fig. 6 + S. Fig. 10 (HDAC8; Inhibitor conc [M] given as -10.585 (log)): 101,084* and 101,486*
HDAC8 dose-response data (relative enzyme activity), Fig. 6 + S. Fig. 10 (HDAC8; Inhibitor conc [M] -4.30103): 9.568 and 11.2045
HDAC8 dose-response data (relative enzyme activity), Fig. 6 + S. Fig. 10 (HDAC8; Inhibitor conc [M] -5): 36.7683 and 38.5294
HDAC8 dose-response data (relative enzyme activity), Fig. 6 + S. Fig. 10 (HDAC8; Inhibitor conc [M] -5.69897): 76.0846 and 76.9796
HDAC8 dose-response data (relative enzyme activity), Fig. 6 + S. Fig. 10 (HDAC8; Inhibitor conc [M] -6.39794): 95.2833 and 94.1446
EC50 (HDAC3/NCoR2 [2]): 0.00324 µM
EC50 (HDAC1 [3]): 0.0126 µM
Ki (HDAC3/NCoR2 [4]): 0.00222 ± 2e-05 µM
HDAC3 dose-response data (relative enzyme activity), Fig. 6 + S. Fig. 10 (HDAC3/NCoR2 [4]; log[inhibitor(M)] -4.30103): 0.4175 and 0.3694
HDAC3 dose-response data (relative enzyme activity), Fig. 6 + S. Fig. 10 (HDAC3/NCoR2 [4]; log[inhibitor(M)] -5): 1.3048 and 1.953
HDAC3 dose-response data (relative enzyme activity), Fig. 6 + S. Fig. 10 (HDAC3/NCoR2 [4]; log[inhibitor(M)] -5.69897): 3.445 and 2.8496
HDAC3 dose-response data (relative enzyme activity), Fig. 6 + S. Fig. 10 (HDAC3/NCoR2 [4]; log[inhibitor(M)] -6.39794): 11.0647 and 10.1847
HDAC3 dose-response data (relative enzyme activity), Fig. 6 + S. Fig. 10 (HDAC3/NCoR2 [4]; log[inhibitor(M)] -7.09691): 22.9645 and 23.8522
HDAC3 dose-response data (relative enzyme activity), Fig. 6 + S. Fig. 10 (HDAC3/NCoR2 [4]; log[inhibitor(M)] -7.79588): 45.6159 and 50.9763
HDAC3 dose-response data (relative enzyme activity), Fig. 6 + S. Fig. 10 (HDAC3/NCoR2 [4]; log[inhibitor(M)] -8.49485): 73.3299 and 73.9314
HDAC3 dose-response data (relative enzyme activity), Fig. 6 + S. Fig. 10 (HDAC3/NCoR2 [4]; log[inhibitor(M)] -9.19382): 93.2672 and 99.1029
HDAC3 dose-response data (relative enzyme activity), Fig. 6 + S. Fig. 10 (HDAC3/NCoR2 [4]; log[inhibitor(M)] -9.89279): 96.9207 and 113.14
HDAC3 dose-response data (relative enzyme activity), Fig. 6 + S. Fig. 10 (HDAC3/NCoR2 [4]; [5]): 99,4259* and 104,433*
